Several values for one entry are separate records, joined by “and”; a condition that tells them apart may be missing. Identical values can stand only once. Each block holds one compound with its values, some of them ahead of it. {32P} = terminal 32P phosphate radiolabel
Columns and labels:
[1] = system: single stranded target DNA (M13mp19); assay: Target-catalyzed isothermal 5'-nuclease cleavage of 5'-32P-labeled probe; fold amplification by gel electrophoresis and liquid scintillation; type: biochemical
Procedure: Probe 2, the unlabeled probe, was designed to anneal to the target DNA 3' to, and contiguous with, the site at which the labeled probe annealed to the target DNA. […] However, good results were obtained in the absence of DATP. The reaction mixture was incubated at 72° C. and accumulation of product, a mononucleotide, namely, 5'^32P-C-OH, was determined by visualization using autoradiography following polyacrylamide gel electrophoresis. The fold of amplification was determined by liquid scintillation spectrometry of excised reaction products. A 10^5 fold amplification was observed. […] The product of this reaction was a dinucleotide, namely, 5'^32P-TC-OH (SEQ ID NO:4), that represented a 10^5-fold amplification. The above reaction protocol was repeated with different temperatures and different concentrations of reagents. All of the reactions, including those mentioned above, were carried out for a period of 3 hours. The following table summarizes the reagents and reaction parameters and the results obtained during the optimization procedure. The reaction protocol described in Example 1 was repeated using the following probes in place of Probe 1 or Probe 3: […]

[2] = system: Probe 5 hybridized to target DNA (M13mp19); assay: Cleavage of Probe 5 on target DNA using six different DNA polymerases with 5'-nuclease activity; type: biochemical; conditions: 2×10^9 target molecules; Probe 5 1 micromolar; three hours; 72 °C; 20-nucleotide fragment
Procedure: Probe 2, the unlabeled probe, was designed to anneal to the target DNA 3' to, and contiguous with, the site at which the labeled probe annealed to the target DNA. […] However, good results were obtained in the absence of DATP. The reaction protocol described in Example 1 was repeated using 2×10^9 target molecules and Probe 5 (see Example 2) at a concentration of 1 micromolar in place of Probe 1. The reactions were conducted for three hours at a temperature of 72° C. using one of six different DNA polymerases, namely, AmpliTaq DNA polymerase, […] polymerase (Epicentre), Tfl(TM) DNA polymerase (Epicentre), Ultra Therm(TM) DNA polymerase (Bio/Can Scientific), […] polymerase (Amresco) and Panozyme(TM) DNA polymerase. The product of the reaction was a 20-nucleotide fragment (see Example 2). The following is a summary of the results obtained.

[3] = probe 1 μM, target number 10^9, Taq 7.5 units, 72 °C, increase MgCl2 (7.5 mM), 3 hours
[4] = probe 10 uM, 2×10^8 target molecules, Probe 2 1 uM, 7.5 units AmpliTaq, 72 °C, 7.5 mM MgCl2, 100 uM dATP, 3 hours
[5] = probe 10 μM, target number 10^8, Taq 7.5 units, 74 °C, increase MgCl2 (7.5 mM), 3 hours
[6] = probe 10 μM, target number 10^9, Taq 7.5 units, 74 °C, increase MgCl2 (7.5 mM), 3 hours

Compound: 5′ CGT-GGG-AAC-AAA-CGG-CGG-AT3′ (CGTGGGAACAAACGGCGGAT; DNA, 5' {32P}, backbone and methylation of C not given here) [Probe 1, 20-base oligonucleotide fully complementary to the target DNA with label on the 5′-nucleotide]
Fold amplification ([1]; probe 1 μM, target number 10^8, Taq 7.5 units, 72 °C, add dATP (100 μM), 3 hours): 1.0 × 10^4 fold
Fold amplification ([1]; probe 1 μM, target number 10^9, Taq 2.5 units, 72 °C, buffer as described, 1.5 mM MgCl2, 3 hours): 1.8 × 10^3 fold
Fold amplification ([1]; probe 1 μM, target number 10^9, Taq 7.5 units, 72 °C, add dATP (100 μM), 3 hours): 1.4 × 10^3 fold
Fold amplification ([1]; probe 1 μM, target number 10^9, Taq 7.5 units, 72 °C, buffer as described, 1.5 mM MgCl2, 3 hours): 2.0 × 10^3 fold
Fold amplification [1, 3]: 9.7 × 10^3 fold and 9.3 × 10^3 fold
Fold amplification ([1]; probe 1 μM, target number 10^10, Taq 2.5 units, 72 °C, buffer as described, 1.5 mM MgCl2, 3 hours): 8.8 × 10^2 fold
Fold amplification [1, 4]: 10^5 fold
Fold amplification ([1]; probe 10 μM, target number 10^8, Taq 7.5 units, 72 °C, add dATP (100 μM), 3 hours): 3.6 × 10^4 fold
Fold amplification [1, 5]: 1.1 × 10^5 fold
Fold amplification ([1]; probe 10 μM, target number 10^9, Taq 7.5 units, 72 °C, add dATP (100 μM), 3 hours): 1.4 × 10^4 fold
Fold amplification [1, 6]: 3.7 × 10^4 fold

effect on rate of cleavage by the polymerase ([1]; 100 uM in buffer, AmpliTaq DNA polymerase): enhance the rate of cleavage
Compound: Nc1ncnc2c1ncn2[C@H]1C[C@H](O)[C@@H](COP(=O)(O)OP(=O)(O)OP(=O)(O)O)O1 [dATP, reference compound]

Compound: 5′TTA-TTT-CGT-GGG-AAC-AAA-CGG-CGG-AT3′ [Probe 4]
Fold amplification ([1]; Example 1 protocol, probe 1 micromolar, product intact seven nucleotide fragment): 1.5×10^4 fold

Compound: 5′TCG-TGG-GAA-CAA-ACG-GCG-GAT3′ (TCGTGGGAACAAACGGCGGAT; DNA, 5' {32P}, backbone and methylation of C not given here) [Probe 3, 21 nucleotides withone base at the 5′-end not complementary to the target DNA]
Fold amplification ([1]; probe 1 μM, target number 10^8, Taq 7.5 units, 72 °C, increase MgCl2 (7.5 mM), 3 hours): 2.6 × 10^4 fold
Fold amplification [1, 3]: 9.9 × 10^3 fold
Fold amplification [1, 4]: 10^5 fold
Fold amplification [1, 5]: 1.0 × 10^5 fold
Fold amplification [1, 6]: 4.6 × 10^4 fold

Compound: AmpliTaq: Taq DNA polymerase from Perkin-Elmer Corporation with 5′-nuclease activity
Fragment (picomoles) [2]: 32 picomoles

Compound: 5′GAT-TAG-GAT-TAG-GAT-TAG-TCG-TGG-GAA-CAA-ACG-GCG-GAT3′ (GATTAGGATTAGGATTAGTCGTGGGAACAAACGGCGGAT; DNA, 5' {32P}, backbone and methylation of C not given here) [Probe 5, 39 nucleotides with 19 nucleotides at its 5′-end not complementary to the target DNA]
Fold amplification ([1]; Example 1 protocol, probe concentration not given, product intact 20 nucleotide fragment): 1.5×10^4 fold

Source: US6368803B1, “Detection of nucleic acids by target-catalyzed formation” (Dade Behring Inc., priority 1994, dated 2002)
